Results on eight molecules are retold here after article PMC3945162 (Psychopharmacology, 2013).

For orientation: Ki means the dissociation constant of the complex between target and ligand, obtained from inhibition or displacement. A word on the EC50: it is the concentration at which the effect is half-maximal. One may read the IC50 as the concentration that gives 50% inhibition.

Like-named read-outs stand apart in the source and are kept apart here.

Data set [1] concerns the target T1, hNET (Homo sapiens, UniProt P23975). In words: cell-based.
In data set [2] the target is T2, hSERT (Homo sapiens, UniProt P31645). The data set can be described thus: [125I]RTI-55 binding, HEK-hSERT cells.
Data set [3] addresses T3, hDAT (Homo sapiens, UniProt Q01959). In words: [3H]Dopamine release, HEK-hDAT cells. It is filed as cell-based. The conditions noted are these: HEK-hDAT cells.
Data set [4] concerns the target T4, human 5-HT2A receptor (Homo sapiens, UniProt P28223). The data set can be described thus: [3H]AA release from HEK-5-HT2A cells. The data set is classed as cell-based. Conditions: for Emax: read-out: 5-HT2A Function [3H]AA release % maximal effect.
The target of data set [5] is T4, human 5-HT2A receptor. In words: [125I]DOI binding, HEK-5-HT2A cells.
Data set [6] concerns the target T2, hSERT. The data set can be described thus: [3H]Serotonin uptake, HEK-hSERT cells. It is filed as cell-based.
Data set [7] has as its target T1, hNET. In words: cell-based. This is another data set of the same source.
Data set [8] deals with rats trained to discriminate MDMA (1.5 mg/kg) from saline. The data set is classed as in vivo, rat. The conditions noted are these: MDMA-trained rats, 15 min pretreatment.
Data set [9] concerns rats trained to discriminate LSD (0.1 mg/kg) from saline. It is filed as in vivo, rat. The conditions noted are these: LSD-trained rats, 15 min pretreatment.
Data set [10] concerns the target T2, hSERT. The data set can be described thus: [3H]Serotonin release, HEK-hSERT cells. It is filed as cell-based.
Data set [11] has as its system rats trained to discriminate DMT (5 mg/kg) from saline. It is filed as in vivo, rat. The conditions noted are these: DMT-trained rats; 15 min pretreatment.
Data set [12] concerns Male Sprague-Dawley rats. In words: Adverse effects observed during drug discrimination test sessions. The data set is classed as in vivo, rat.
Data set [13] concerns the target T4, human 5-HT2A receptor. In words: IP-1 formation, HEK-5-HT2A cells. The data set is classed as cell-based. Conditions: for Emax: read-out: 5-HT2A Function IP-1 formation % maximal effect.
The target of data set [14] is T1, hNET. In words: biochemical. It is filed as binding.
The target of data set [15] is T3, hDAT. In words: [3H]Dopamine uptake, HEK-hDAT cells. It is filed as cell-based.
Data set [16] has as its target T3, hDAT. In words: [125I]RTI-55 binding, HEK-hDAT cells.
Data set [17] relates to Male Swiss–Webster mice. In words: Locomotor activity. It is filed as in vivo, mouse. Conditions: mice, i.p.
The target of data set [18] is T5, human 5-HT1A receptor (Homo sapiens, UniProt P08908).
T5 sequence (P08908 1-422): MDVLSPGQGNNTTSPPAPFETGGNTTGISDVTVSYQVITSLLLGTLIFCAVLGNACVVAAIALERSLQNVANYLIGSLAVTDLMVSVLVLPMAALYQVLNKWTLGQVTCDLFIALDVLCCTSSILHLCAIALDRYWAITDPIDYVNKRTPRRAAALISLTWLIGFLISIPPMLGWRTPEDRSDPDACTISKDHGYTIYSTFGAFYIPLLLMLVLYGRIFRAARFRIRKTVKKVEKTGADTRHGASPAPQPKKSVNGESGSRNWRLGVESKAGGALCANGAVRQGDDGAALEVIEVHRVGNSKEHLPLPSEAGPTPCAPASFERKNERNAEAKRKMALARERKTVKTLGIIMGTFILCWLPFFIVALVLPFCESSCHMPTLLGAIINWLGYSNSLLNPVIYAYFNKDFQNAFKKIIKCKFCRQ
In words: [35S]GTPγS binding functional assay, HEK-5-HT1A. It is filed as biochemical. The conditions noted are these: for Emax: read-out: 5-HT1A Function [35S]GTPγS Binding % maximal effect. Background: GTPγS resists hydrolysis and so accumulates on activated G proteins.

Data set [19] deals with rats trained to discriminate METH (1 mg/kg) from saline. It is filed as in vivo, rat. The conditions noted are these: METH-trained rats; 15 min pretreatment.
For data set [20], the system named is rats trained to discriminate DOM (0.5 mg/kg) from saline. It is filed as in vivo, rat. Conditions: 15 min pretreatment.
In data set [21] the target is T5, human 5-HT1A receptor. The data set can be described thus: [3H]8-OH-DPAT binding, HEK-5-HT1A.
Data set [22] concerns the target T6, human 5-HT2C receptor (Homo sapiens, UniProt P28335).
T6 sequence (P28335 33-458): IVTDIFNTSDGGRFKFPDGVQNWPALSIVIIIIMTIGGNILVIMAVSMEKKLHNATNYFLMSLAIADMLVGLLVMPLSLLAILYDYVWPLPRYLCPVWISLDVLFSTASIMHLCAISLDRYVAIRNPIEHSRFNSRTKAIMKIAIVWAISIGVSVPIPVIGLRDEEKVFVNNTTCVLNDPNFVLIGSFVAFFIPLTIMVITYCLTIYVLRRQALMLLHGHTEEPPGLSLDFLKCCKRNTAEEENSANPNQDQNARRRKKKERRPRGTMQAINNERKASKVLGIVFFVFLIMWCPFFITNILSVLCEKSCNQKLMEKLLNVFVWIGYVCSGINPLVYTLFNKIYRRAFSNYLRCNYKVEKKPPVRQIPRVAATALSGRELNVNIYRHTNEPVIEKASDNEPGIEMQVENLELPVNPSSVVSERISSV
The data set can be described thus: cell-based. The conditions noted are these: read-out: 5-HT2C Function IP-formation % maximal effect.

Setting [23] is: normalized to the maximal effect of serotonin.

T4 sequence (P28223 whole entry): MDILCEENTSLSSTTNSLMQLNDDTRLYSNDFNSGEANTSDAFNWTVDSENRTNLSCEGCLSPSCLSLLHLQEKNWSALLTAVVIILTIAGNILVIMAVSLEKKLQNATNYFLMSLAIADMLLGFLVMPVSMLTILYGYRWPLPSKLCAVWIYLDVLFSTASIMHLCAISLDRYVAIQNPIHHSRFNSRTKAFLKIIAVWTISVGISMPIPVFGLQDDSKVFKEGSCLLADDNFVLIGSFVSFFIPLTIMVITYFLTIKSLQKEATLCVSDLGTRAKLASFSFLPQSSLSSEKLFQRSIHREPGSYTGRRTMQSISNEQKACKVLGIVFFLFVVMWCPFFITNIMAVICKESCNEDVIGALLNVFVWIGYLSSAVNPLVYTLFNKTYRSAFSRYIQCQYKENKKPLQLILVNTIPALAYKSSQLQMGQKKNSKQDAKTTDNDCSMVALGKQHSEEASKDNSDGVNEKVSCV
T2 sequence (P31645 whole entry): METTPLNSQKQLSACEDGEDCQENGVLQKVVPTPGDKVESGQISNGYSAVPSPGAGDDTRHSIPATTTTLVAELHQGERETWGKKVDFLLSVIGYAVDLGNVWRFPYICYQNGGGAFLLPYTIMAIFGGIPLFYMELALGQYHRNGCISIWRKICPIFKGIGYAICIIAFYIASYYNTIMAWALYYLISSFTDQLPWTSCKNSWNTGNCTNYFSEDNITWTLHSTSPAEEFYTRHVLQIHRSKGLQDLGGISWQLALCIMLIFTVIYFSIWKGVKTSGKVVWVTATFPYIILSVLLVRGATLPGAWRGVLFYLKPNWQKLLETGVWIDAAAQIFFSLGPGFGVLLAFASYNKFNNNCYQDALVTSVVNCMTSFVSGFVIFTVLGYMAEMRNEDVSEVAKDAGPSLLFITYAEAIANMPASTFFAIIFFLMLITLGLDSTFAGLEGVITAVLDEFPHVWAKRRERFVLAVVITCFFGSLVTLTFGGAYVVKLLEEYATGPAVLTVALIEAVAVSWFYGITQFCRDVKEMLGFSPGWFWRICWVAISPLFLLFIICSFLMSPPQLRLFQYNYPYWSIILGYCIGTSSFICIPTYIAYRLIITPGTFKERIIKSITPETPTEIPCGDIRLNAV
T3 sequence (Q01959 whole entry): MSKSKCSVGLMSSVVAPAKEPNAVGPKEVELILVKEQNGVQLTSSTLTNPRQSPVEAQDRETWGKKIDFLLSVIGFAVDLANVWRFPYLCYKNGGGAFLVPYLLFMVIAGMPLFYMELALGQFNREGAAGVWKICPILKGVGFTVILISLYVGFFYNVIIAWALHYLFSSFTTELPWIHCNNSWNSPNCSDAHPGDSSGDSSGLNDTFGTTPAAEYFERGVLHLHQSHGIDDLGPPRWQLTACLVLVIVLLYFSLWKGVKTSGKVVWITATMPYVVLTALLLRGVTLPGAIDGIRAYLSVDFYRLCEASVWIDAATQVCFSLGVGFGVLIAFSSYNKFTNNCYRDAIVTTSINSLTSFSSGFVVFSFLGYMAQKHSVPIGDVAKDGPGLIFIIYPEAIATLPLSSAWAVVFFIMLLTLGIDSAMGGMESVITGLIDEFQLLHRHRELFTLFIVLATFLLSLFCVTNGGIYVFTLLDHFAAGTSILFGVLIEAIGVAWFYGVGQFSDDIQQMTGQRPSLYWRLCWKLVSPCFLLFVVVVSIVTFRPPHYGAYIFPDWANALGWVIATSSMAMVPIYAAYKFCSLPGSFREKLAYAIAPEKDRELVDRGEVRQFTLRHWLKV
T1 sequence (P23975 whole entry): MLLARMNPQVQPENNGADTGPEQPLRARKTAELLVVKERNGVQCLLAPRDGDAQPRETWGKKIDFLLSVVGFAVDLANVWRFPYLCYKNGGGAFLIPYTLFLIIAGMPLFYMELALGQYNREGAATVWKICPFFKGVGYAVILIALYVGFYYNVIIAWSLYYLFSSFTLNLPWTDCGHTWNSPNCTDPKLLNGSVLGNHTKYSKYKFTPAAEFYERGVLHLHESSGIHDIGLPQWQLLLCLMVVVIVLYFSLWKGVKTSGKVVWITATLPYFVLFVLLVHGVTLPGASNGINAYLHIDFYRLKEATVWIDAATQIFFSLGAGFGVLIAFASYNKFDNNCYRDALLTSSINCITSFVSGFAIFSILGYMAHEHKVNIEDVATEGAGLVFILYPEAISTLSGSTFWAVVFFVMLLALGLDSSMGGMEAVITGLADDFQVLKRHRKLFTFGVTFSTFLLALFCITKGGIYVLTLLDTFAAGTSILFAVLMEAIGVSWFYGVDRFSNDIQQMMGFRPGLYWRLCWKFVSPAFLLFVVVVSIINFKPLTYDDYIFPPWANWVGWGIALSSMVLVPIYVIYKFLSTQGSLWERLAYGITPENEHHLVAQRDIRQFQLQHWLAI

As to `CCc1cc(OC)c(CCN)cc1OC` [2C-E, 2,5-dimethoxy-4-ethylphenethylamine], the “[3H]NE release % METH maximal effect” value in data set [1] was “ND Minimal”. Besides, the inhibition constant Ki in data set [2] is more than 10 µM; in data set [5], 4.5 ± 0.71 nM; in [14], more than 7.6 µM; in data set [16] it was more than 10 µM. In data set [3], the “[3H]Dopamine release % METH maximal effect” value is “ND Minimal”. In addition, the EC50 in [4] was determined as 7.1 ± 3.3 nM; in data set [13] it was 0.084 ± 0.016 µM. Further, the Emax in data set [4] was 65 ± 11%; in data set [13] it was 125 ± 13%; in data set [18], less than 20%. Moreover, the IC50 was more than 7.5 µM in [6], more than 9.8 µM in data set [7] and more than 10 µM in [15]. The “Rate of responding at dose of maximum DAR” value came out at 0.053±0.036 resp/s in [8]; 0.413±0.061 resp/s in data set [9]; 0.466±0.166 resp/s in [11]; 0.228±0.024 resp/s in [19]; 0.576±0.087 resp/s in [20]. In addition, the “Maximum %DAR (drug-appropriate responding)” value is reported as 100±0 % in data set [8] (i.p., at dose of maximum DAR); 97±3 % in [9] (i.p., at dose of maximum DAR); 97±2 % in data set [20] (i.p., at dose of maximum DAR). In [10], the “[3H]Serotonin release % PCA maximal effect” value is reported as “ND Minimal”. Besides, in [12] (10 mg/kg, MDMA-trained rats), the Adverse effect observed result is “Loss of muscle tone”. The Effect on responding result in data set [12] (25 mg/kg) was “completely suppressed responding”. The “Duration of depressant effects” value in data set [17] lay in the range of 50 to 70 min. Moreover, the “Duration of stimulant effects” value in data set [17] fell in the range of 70 to 100 min. Besides, the “Onset of depressant effects (within, after injection)” value in [17] is not above 10 min. Further, the “Onset of stimulant effects (within, after injection)” value in [17] is not above 50 min.
Turning to `CCSc1cc(OC)c(CCN)cc1OC` [2C-T-2, 2,5-dimethoxy-4-ethylthiophenethylamine], the “[3H]NE release % METH maximal effect” value in data set [1] was “ND Minimal”. The Ki was more than 9.4 µM in data set [2]; 1.74 ± 0.66 µM in data set [21]; 12.5 ± 4.4 nM in data set [5]; more than 10 µM in data set [14]; more than 10 µM in data set [16]. In data set [3], the “[3H]Dopamine release % METH maximal effect” value is recorded as “ND Minimal”. In addition, the results for the EC50 in data set [4], in [13] and in data set [18] were 2.3 ± 0.69 nM, 0.0079 ± 0.002 µM and 3 ± 1.3 µM, respectively. In addition, the values for the Emax in data set [4], in data set [13] and in data set [18] were 107 ± 6.3%, 87.4 ± 6.5% and 76 ± 10%, respectively. Further, the IC50 was more than 8.6 µM in data set [6], more than 7.2 µM in data set [7] and more than 10 µM in data set [15]. Further, the “Rate of responding at dose of maximum DAR” value in [8] is 0.448±0.130 resp/s; in [9], 0.208±0.117 resp/s; in data set [11], 0.170±0.106 resp/s; in data set [19], 0.748±0.109 resp/s. Further, in data set [10], the “[3H]Serotonin release % PCA maximal effect” value was “ND Minimal”. For the same molecule, in [12] (5 mg/kg, LSD-trained rats), the “Decreased muscle tone (rats affected/tested)” value was 3/6. Further, in data set [12] (10 mg/kg), the Adverse effects observed entry was “hind limb paralysis, salivation and loss of muscle tone”. Moreover, in data set [12] (highest dose tested, in each of DMT-, LSD-, MDMA- and METH-trained groups), the “Rats that failed to complete the first fixed ratio” value is 5/6. Also, the “Duration of depressant effects” value in data set [17] was 30 to 50 min.
With `COC(=O)[C@H]1[C@@H](OC(=O)c2ccccc2)C[C@@H]2CC[C@H]1N2C` [Cocaine, reference compound], the “[3H]Dopamine release % METH maximal effect” value in data set [3] is recorded as “ND Minimal”. Moreover, the “[3H]Serotonin release % PCA maximal effect” value in data set [10] was “ND Minimal”.
With `CN(C)CCc1c[nH]c2ccccc12` [DMT, N,N,-dimethyltryptamine, reference compound], the EC50 in data set [4] amounted to 260 ± 120 nM; in data set [13] it was 0.269 ± 0.061 µM. For the same molecule, the figures for the Emax in data set [4], in data set [13] and in data set [18] were 105 ± 3%, 39 ± 4.6% and 100 ± 5.2%, respectively. In data set [5], this molecule registered an inhibitory constant (Ki) of 201 ± 48 nM.
Regarding `COc1cc(CC(C)N)c(OC)cc1C` (stereo not drawn) [DOM, 2,5-dimethoxy-4-methylamphetamine, reference compound], the Ki in data set [21] worked out at 11.9 ± 5.6 µM; in data set [5], 8.1 ± 2.2 nM. The concentration giving a half-maximal response (EC50) in data set [13] amounted to 0.0312 ± 0.0096 µM; in data set [18] it was 13.9 ± 1.5 µM. The Emax is 106 ± 11% in data set [13] and 53.8 ± 9.7% in [18].
For the molecule `CCN(CC)C(=O)[C@@H]1C=C2c3cccc4[nH]cc(c34)C[C@H]2N(C)C1` [LSD, lysergic acid diethylamide, reference compound], the inhibitory constant (Ki) was more than 10 µM in data set [2] (read-out: hSERT [125I]RTI-55 binding Ki, HEK-hSERT cells, cells printed in μM); 5.6 ± 0.26 µM in [14] (read-out: hNET [125I]RTI-55 binding Ki); more than 10 µM in [16] (read-out: hDAT [125I]RTI-55 binding Ki, HEK-hDAT cells, cells printed in μM). In data set [4] (setting [23]), the “5-HT2A Function [3H]AA release % maximal effect” value turned out to be 87.8 ± 3.4%. The IC50 was more than 10 µM in data set [6] (read-out: [3H]Serotonin uptake IC50, HEK-hSERT cells, cells printed in μM); more than 10 µM in [7] (read-out: [3H]NE uptake IC50); more than 10 µM in data set [15] (read-out: [3H]Dopamine uptake IC50, HEK-hDAT cells, cells printed in μM). For the same molecule, the “5-HT2A Function IP-1 formation % maximal effect” value in data set [13] (setting [23]) came to 80.3 ± 4.9%.
Take `CNC(C)Cc1ccc2c(c1)OCO2` (stereo not drawn) [MDMA, 3,4-methylenedioxymethamphetamine, reference compound]: the Ki in [21] came out at 11.9 ± 1.2 µM; in data set [5], 20900 ± 4600 nM. Moreover, the values for the Emax in data set [22], in [13] and in data set [18] were 92.2 ± 8%, 40.2 ± 7.1% and 64.3 ± 9.4%, respectively. In addition, the EC50 in data set [13] amounted to 5500 ± 2300 µM; in data set [18], 36 ± 16 µM.
Regarding `NCCc1c[nH]c2ccc(O)cc12` [Serotonin, reference compound], the “Average maximal stimulation of IP-1 formation” value in data set [13] (HEK-5-HT2A cells) was determined as 565 ± 46 nM IP1.
